We go through 37 compounds from patent publication US10508120B2, “TYK2 inhibitors and uses thereof” (Nimbus Lakshmi, Inc., priority 2017, dated 2019).

Assay [1] has as its target human TYK2 (JH2domain-pseudokinase) (Homo sapiens (Human), UniProt P29597). As to the kind of experiment: TYK2 JH2 Domain Binding Assay (KINOMEscan). In a few lines:
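Pseudokinase domain binding was measured by qPCR of tagged, bead-retained kinase after 1 h room-temperature competition, with 0.9% DMSO and compound up to 30,000 nM in 3-fold steps. Hill-equation Kd, duplicate.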

In the next assay the target is Tyk2 kinase domain (DH1) (Homo sapiens (Human), UniProt P29597). As to the kind of experiment: Tyk2 Radioactive Kinase Assay. Format: biochemical. The note with it: compound at 10 μM; ATP 10 μM; read-out: Tyk2 JH1% Inhibition @ 10 μM. In a few lines:
(§1)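 Values are single-concentration percent inhibition figures. They were obtained with 10 μM compound in a radioactivity-based kinase assay run separately on each enzyme.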

The next assay has as its target JAK2 kinase domain (JH1) (Homo sapiens (Human), UniProt O60674). As to the kind of experiment: JAK2 Radioactive Kinase Assay. It counts as biochemical. The following applies: compound at 10 μM; ATP 10 μM; read-out: JAK2 JH1% Inhibition @ 10 μM. In a few lines: as §1

Sequence of human TYK2 (JH2domain-pseudokinase) (P29597 556-888): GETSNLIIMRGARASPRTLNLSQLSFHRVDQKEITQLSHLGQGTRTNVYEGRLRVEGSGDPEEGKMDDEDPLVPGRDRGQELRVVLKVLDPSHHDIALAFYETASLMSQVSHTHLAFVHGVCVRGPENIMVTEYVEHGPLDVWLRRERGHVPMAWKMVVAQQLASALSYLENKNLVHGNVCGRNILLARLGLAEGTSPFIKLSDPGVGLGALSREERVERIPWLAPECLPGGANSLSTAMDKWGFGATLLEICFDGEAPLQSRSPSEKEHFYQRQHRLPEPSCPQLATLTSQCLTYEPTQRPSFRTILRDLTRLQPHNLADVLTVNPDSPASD
Sequence of Tyk2 kinase domain (DH1) (P29597 897-1176): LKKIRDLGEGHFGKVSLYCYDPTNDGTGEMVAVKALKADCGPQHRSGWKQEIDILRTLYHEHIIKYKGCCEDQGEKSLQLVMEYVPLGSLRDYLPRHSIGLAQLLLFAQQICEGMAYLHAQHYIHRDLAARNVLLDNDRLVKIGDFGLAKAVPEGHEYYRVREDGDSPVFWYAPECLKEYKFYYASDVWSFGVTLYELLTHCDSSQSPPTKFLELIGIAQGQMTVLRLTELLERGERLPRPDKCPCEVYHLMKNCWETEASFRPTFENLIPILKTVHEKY
Sequence of JAK2 kinase domain (JH1) (O60674 849-1124): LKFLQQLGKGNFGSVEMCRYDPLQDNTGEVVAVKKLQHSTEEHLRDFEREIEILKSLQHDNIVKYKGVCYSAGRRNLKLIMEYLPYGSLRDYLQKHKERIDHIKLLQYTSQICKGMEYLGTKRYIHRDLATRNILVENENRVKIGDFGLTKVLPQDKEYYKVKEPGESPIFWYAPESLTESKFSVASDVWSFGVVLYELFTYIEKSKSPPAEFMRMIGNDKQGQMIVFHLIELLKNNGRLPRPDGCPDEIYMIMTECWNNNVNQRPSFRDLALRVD

Consider `CNc1cc(Nc2cccnc2C(C)(F)F)nc2c(C(=O)NC3CCC3)cnn12` [I-299], for which the Kd in assay [1] is 0.2 to 1 nM. For the same compound, the inhibition at 10 µM on Tyk2 kinase domain (DH1) and on JAK2 kinase domain (JH1) was under 50% throughout.
In assay [1], `CNc1cc(Nc2cccnc2C(C)(F)F)nc2c(C(=O)N[C@H]3C[C@H]3F)cnn12` [I-300] came in with a dissociation constant (Kd) of 0.2 to 1 nM. Also, the inhibition at 10 µM on Tyk2 kinase domain (DH1) and on JAK2 kinase domain (JH1) was under 50% in each case.
`CNc1cc(Nc2cccn(-c3cncc(C)c3)c2=O)nc2c(C(=O)NC3CC3)cnn12` [I-301]: the Kd in assay [1] lay in the range of 0.2 to 1 nM. Moreover, the inhibition at 10 µM at Tyk2 kinase domain (DH1) and on JAK2 kinase domain (JH1) was under 50% each time.
`CNc1cc(Nc2cccn(-c3cncc(C)c3)c2=O)nc2c(C(=O)N[C@H]3C[C@H]3F)cnn12` [I-302] gave a Kd in assay [1] of under 0.2 nM. The inhibition at 10 µM on Tyk2 kinase domain (DH1) and at JAK2 kinase domain (JH1) was under 50% throughout.
For `CNc1cc(Nc2cccn([C@H]3CC[C@@H](N4CCOCC4)CC3)c2=O)nc2c(C(=O)N[C@H]3C[C@H]3F)cnn12` [I-304], the Kd in assay [1] is under 0.2 nM. Further, the inhibition at 10 µM on Tyk2 kinase domain (DH1) and on JAK2 kinase domain (JH1) was under 50% throughout.
Compound `CNc1cc(Nc2cccnc2C(C)(C)O)nc2c(C(=O)NC3CC3)cnn12` [I-306] showed a dissociation constant Kd in assay [1] of 1 to 10 nM. In addition, the inhibition at 10 µM at Tyk2 kinase domain (DH1) and at JAK2 kinase domain (JH1) was under 50% in each case.
Turning to `CNc1cc(Nc2cccnc2C(C)(C)O)nc2c(C(=O)N[C@H]3C[C@H]3F)cnn12` [I-307], the Kd in assay [1] lay within 0.2 to 1 nM. The inhibition at 10 µM on Tyk2 kinase domain (DH1) and on JAK2 kinase domain (JH1) was under 50% each time.
`CNc1cc(Nc2cccn(-c3ccc(CCN4CCOCC4)cc3)c2=O)nc2c(C(=O)N[C@H]3C[C@H]3F)cnn12` [I-308]: the Kd in assay [1] is under 0.2 nM. The inhibition at 10 µM on Tyk2 kinase domain (DH1) and at JAK2 kinase domain (JH1) was under 50% throughout.
The compound `CNc1cc(Nc2cccn(C3CCCOC3)c2=O)nc2c(C(=O)NC3CC3)cnn12` (stereo not drawn) [I-313] gave a Kd in assay [1] of under 0.2 nM. Further, the inhibition at 10 µM on Tyk2 kinase domain (DH1) and at JAK2 kinase domain (JH1) was under 50% throughout.
Take `CNc1cc(Nc2cc(Cl)cn(-c3ccnc(C)n3)c2=O)nc2c(C(=O)NC3CC3)cnn12` [I-316]: in assay [1], the Kd was under 0.2 nM. Moreover, the inhibition at 10 µM on Tyk2 kinase domain (DH1) and at JAK2 kinase domain (JH1) was under 50% each time.
With `CNc1cc(Nc2cccnc2OC2CC2)nc2c(C(=O)N[C@H]3C[C@H](O)C3)cnn12` [I-320, 5-((2-cyclopropoxypyridin-3-yl)amino)-N-((1r, 3r)-3-hydroxycyclobutyl)-7-(methylamino)pyrazolo[1,5-a]pyrimidine-3-carboxamide], the Kd in assay [1] was under 0.2 nM. Besides, the inhibition at 10 µM at Tyk2 kinase domain (DH1) is under 50%; at JAK2 kinase domain (JH1), 50 to 70%.
On the same counts, the results for `CNc1cc(Nc2cc(Cl)cn(-c3ncc(C)s3)c2=O)nc2c(C(=O)NC3CC3)cnn12` [I-322] are 0.2 to 1 nM, under 50% and under 50%.
For `CNc1cc(Nc2cc(Cl)cn(-c3cnn(C4CC4)c3C)c2=O)nc2c(C(=O)NC3CC3)cnn12` [I-325] the same measures were 0.2 to 1 nM, under 50% and under 50%.
For `CNc1cc(Nc2cccn(-c3ccnn3C)c2=O)nc2c(C(=O)NC3CC3)cnn12` [I-327] the same measures were 0.2 to 1 nM, under 50% and under 50%.
With `CNc1cc(Nc2cccn(-c3ccnn3C)c2=O)nc2c(C(=O)NC3CCC3)cnn12` [I-328], the dissociation constant Kd in assay [1] is under 0.2 nM. In addition, the inhibition at 10 µM at Tyk2 kinase domain (DH1) and on JAK2 kinase domain (JH1) was under 50% in each case.
`CNc1cc(Nc2cccn(-c3ccnn3C)c2=O)nc2c(C(=O)N[C@H]3C[C@H]3F)cnn12` [I-335]: the Kd in assay [1] was under 0.2 nM. Also, the inhibition at 10 µM at Tyk2 kinase domain (DH1) and at JAK2 kinase domain (JH1) was under 50% throughout.
For the compound `COc1ncccc1Nc1cc(NC2CC2)n2ncc(C(=O)NC3CC3)c2n1` [I-336, N-cyclopropyl-7-(cyclopropylamino)-5-((2-methoxypyridin-3-yl)amino)pyrazolo[1,5-a]pyrimidine-3-carboxamide], the Kd in assay [1] was 0.2 to 1 nM. The inhibition at 10 µM at Tyk2 kinase domain (DH1) and on JAK2 kinase domain (JH1) was under 50% in each case.
For `COc1ncccc1Nc1cc(NC2CC2)n2ncc(C(=O)N[C@@H]3C[C@@H]3F)c2n1` [I-337, 7-(cyclopropylamino)-N-((1R,2S)-2-fluorocyclopropyl)-5-((2-methoxypyridin-3-yl)amino)pyrazolo[1,5-a]pyrimidine-3-carboxamide], the Kd in assay [1] fell in the range of 0.2 to 1 nM. The inhibition at 10 µM at Tyk2 kinase domain (DH1) and on JAK2 kinase domain (JH1) was under 50% each time.
In assay [1], `CNc1cc(Nc2cccnc2OC)nc2c(C(=O)NC3CC(F)(F)C3)cnn12` [I-338, N-(3,3-difluorocyclobutyl)-5-((2-methoxypyridin-3-yl)amino)-7-(methylamino)pyrazolo[1,5-a]pyrimidine-3-carboxamide] had a Kd of under 0.2 nM. Also, the inhibition at 10 µM at Tyk2 kinase domain (DH1) and on JAK2 kinase domain (JH1) was under 50% throughout.
As for `CNc1cc(Nc2cccnc2OC2CC2)nc2c(C(=O)NC3CC(F)(F)C3)cnn12` [I-339, 5-((2-cyclopropoxypyridin-3-yl)amino)-N-(3,3-difluorocyclobutyl)-7-(methylamino)pyrazolo[1,5-a]pyrimidine-3-carboxamide], in assay [1], the Kd lay in the range of 0.2 to 1 nM. Further, the inhibition at 10 µM on Tyk2 kinase domain (DH1) and on JAK2 kinase domain (JH1) was under 50% each time.
`CNc1cc(Nc2cccn(-c3cc(C)nn3C)c2=O)nc2c(C(=O)NC3CC3)cnn12` [I-340] had a Kd in assay [1] of 0.2 to 1 nM. Also, the inhibition at 10 µM on Tyk2 kinase domain (DH1) and on JAK2 kinase domain (JH1) was under 50% each time.
On to `CNc1cc(Nc2cccn(-c3cc(C)nn3C)c2=O)nc2c(C(=O)N[C@H]3C[C@H]3F)cnn12` [I-341], for which the equilibrium dissociation constant (Kd) in assay [1] lay within 0.2 to 1 nM. The inhibition at 10 µM at Tyk2 kinase domain (DH1) and at JAK2 kinase domain (JH1) was under 50% throughout.
In assay [1], `CNc1cc(Nc2cccn(C3CCN(C)CC3)c2=O)nc2c(C(=O)NC3CC3)cnn12` [I-348] yielded a Kd of 0.2 to 1 nM. Further, the inhibition at 10 µM on Tyk2 kinase domain (DH1) and on JAK2 kinase domain (JH1) was under 50% throughout.
The compound `CNc1cc(Nc2cccn(C3CCN(C)CC3)c2=O)nc2c(C(=O)N[C@H]3C[C@H]3F)cnn12` [I-349] gave a dissociation constant Kd in assay [1] of under 0.2 nM. Also, the inhibition at 10 µM at Tyk2 kinase domain (DH1) and at JAK2 kinase domain (JH1) was under 50% each time.
In assay [1], `CNc1cc(Nc2cccn([C@@H]3CCCOC3)c2=O)nc2c(C(=O)NC3CCC3)cnn12` [I-353] showed a Kd of under 0.2 nM. Besides, the inhibition at 10 µM on Tyk2 kinase domain (DH1) and on JAK2 kinase domain (JH1) was under 50% each time.
With `CNc1cc(Nc2cccnc2C(C)(F)F)nc2c(C(=O)NCC(C)(C)CO)cnn12` [I-355], the Kd in assay [1] lay in the range of 0.2 to 1 nM. For the same compound, the inhibition at 10 µM on Tyk2 kinase domain (DH1) and on JAK2 kinase domain (JH1) was under 50% each time.
In turn, `CNc1cc(Nc2cccn([C@H]3CC[C@@H](OC)CC3)c2=O)nc2c(C(=O)NC3CC3)cnn12` [I-356] yielded a Kd in assay [1] of under 0.2 nM. Also, the inhibition at 10 µM at Tyk2 kinase domain (DH1) and at JAK2 kinase domain (JH1) was under 50% in each case.
Consider `CNc1cc(Nc2cccn([C@H]3CC[C@@H](OC)CC3)c2=O)nc2c(C(=O)NC3CCC3)cnn12` [I-358], for which the Kd in assay [1] was under 0.2 nM. Also, the inhibition at 10 µM at Tyk2 kinase domain (DH1) and on JAK2 kinase domain (JH1) was under 50% each time.
In turn, `CNc1cc(Nc2cccn([C@H]3CC[C@](C)(OC)CC3)c2=O)nc2c(C(=O)NC3CC3)cnn12` [I-361] showed a Kd in assay [1] of under 0.2 nM. For the same compound, the inhibition at 10 µM at Tyk2 kinase domain (DH1) and on JAK2 kinase domain (JH1) was under 50% each time.
`CNc1cc(Nc2cccn(CC3CCCCO3)c2=O)nc2c(C(=O)NC3CC3)cnn12` (stereo not drawn) [I-364]: the Kd in assay [1] is under 0.2 nM. Also, the inhibition at 10 µM on Tyk2 kinase domain (DH1) and on JAK2 kinase domain (JH1) was under 50% in each case.
In assay [1], `CNc1cc(Nc2cccnc2OC2CN(CC(F)(F)F)C2)nc2c(C(=O)NC3CC3)cnn12` [I-367] came in with a Kd of 0.2 to 1 nM. Further, the inhibition at 10 µM at Tyk2 kinase domain (DH1) and on JAK2 kinase domain (JH1) was under 50% each time.
The compound `COc1ncccc1Nc1cc(NCCCN2CCOCC2)n2ncc(C(=O)NC3CC3)c2n1` [I-376, N-cyclopropyl-5-((2-methoxypyridin-3-yl)amino)-7-((3-morpholinopropyl)amino)pyrazolo[1,5-a]pyrimidine-3-carboxamide] had a dissociation constant Kd in assay [1] of 0.2 to 1 nM. Moreover, the inhibition at 10 µM at Tyk2 kinase domain (DH1) and at JAK2 kinase domain (JH1) was under 50% in each case.
`CNc1cc(Nc2cccc(N3CCCC3)n2)nc2c(C(=O)NC3CC3)cnn12` [I-382] returned a Kd in assay [1] of 0.2 to 1 nM. For the same compound, the inhibition at 10 µM on Tyk2 kinase domain (DH1) and at JAK2 kinase domain (JH1) was under 50% each time.
Regarding `CNc1cc(Nc2cccc(N3CCCC3)n2)nc2c(C(=O)N[C@H]3C[C@H]3F)cnn12` [I-383], the Kd in assay [1] was in the range of 0.2 to 1 nM. The inhibition at 10 µM on Tyk2 kinase domain (DH1) and on JAK2 kinase domain (JH1) was under 50% each time.
`COc1ncccc1Nc1cc(NCCN2CCOCC2)n2ncc(C(=O)NC3CC3)c2n1` [I-387, N-cyclopropyl-5-((2-methoxypyridin-3-yl)amino)-7-((2-morpholinoethyl)amino)pyrazolo[1,5-a]pyrimidine-3-carboxamide] displayed a Kd in assay [1] of 1 to 10 nM. In addition, the inhibition at 10 µM at Tyk2 kinase domain (DH1) and at JAK2 kinase domain (JH1) was under 50% throughout.
As to `CNc1cc(Nc2cccn(-c3ccc(C4CCN(C)CC4)cc3)c2=O)nc2c(C(=O)N[C@H]3C[C@H]3F)cnn12` [I-389], in assay [1], the Kd was under 0.2 nM. For the same compound, the inhibition at 10 µM at Tyk2 kinase domain (DH1) and at JAK2 kinase domain (JH1) was under 50% each time.
In assay [1], `CNc1cc(Nc2cccn(C(C)C)c2=O)nc2c(C(=O)NC3CC3)cnn12` [I-394] registered a Kd of 0.2 to 1 nM. Moreover, the inhibition at 10 µM at Tyk2 kinase domain (DH1) and on JAK2 kinase domain (JH1) was under 50% in each case.
